What was measured:
Plasmodium falciparum [1] = test: Hit confirmation in dose-response curve in NF54 nanoGlo assay, at 72h; assay type: functional, organism-based, Erythrocyte; design: timepoint 72 hour; conditions: Plasmodium falciparum, NF54, Erythrocyte, 72 h
[2] = Hit confirmation in dose-response curve in HepG2 cytotoxicity assay, at 72h; assay type: toxicity, cell-based, Homo sapiens; design: timepoint 72 hour; conditions: human, HepG2 cells
Plasmodium falciparum [3] = test: Hit confirmation in dose-response curve in NF54 pLDH assay, at 72h; assay type: functional, organism-based, Erythrocyte; design: timepoint 72 hour; conditions: Plasmodium falciparum, NF54, Erythrocyte, 72 h
Plasmodium falciparum [4] = test: Hit confirmation in dose-response curve in NF54 nanoGlo assay, at 12h; assay type: functional, organism-based, Erythrocyte; design: timepoint 12 hour; conditions: Plasmodium falciparum, NF54, Erythrocyte, 12 h
Plasmodium falciparum [5] = test: Hit confirmation in dose-response curve in Dd2 pLDH assay, at 72h; assay type: functional, organism-based, Erythrocyte; design: timepoint 72 hour; conditions: Plasmodium falciparum, Dd2, Erythrocyte, 72 h

| Compound | IC50 (Plasmodium falciparum [1]) [nM] | IC50 (Plasmodium falciparum [3]) [µM] | IC50 (Plasmodium falciparum [4]) [µM] | IC50 (Plasmodium falciparum [5]) [µM] | IC50 at 72 h [2] [µM] |
| --- | --- | --- | --- | --- | --- |
| C[C@H](Nc1nc(N)c2ccccc2n1)c1cccc(-n2cncn2)c1 | 4470 | 5.89 | 10.2 | 4.17 | > 10 |
| COCCN1CC[C@H](CN(C)c2ccnc3cc(Cl)ccc23)C1 | 1380 | 1.51 | 1.82 | 1.45 | > 10 |
| Oc1cccc2c1CCC[C@@H]2NCc1ccc2occc2c1 | 4070 | 9.33 | 4.57 | 8.51 | > 10 |
| COC(CN(Cc1nc(N)nc(Nc2ccc(C)cc2)n1)Cc1nc(N)nc(Nc2ccc(C)cc2)n1)OC | 912 | 3.47 | > 10 | 1.45 | > 10 |
| CN(C)CC12CNCC1CN(c1ccnc3cc(Cl)ccc13)C2 (stereo not given) | 41.7 | 0.0309 | 0.0513 | 0.043 | > 10 |
| Cc1ocnc1CNC[C@H](O)c1ccc(Cl)c(Cl)c1 | 2140 | 4.27 | 3.31 | 3.02 | > 10 |
| Cn1nnc(C(=O)N2CCCCC23CCCCCC3)n1 | 2240 | 5.5 | > 10 | 2.29 | > 10 |
| CC(C)(C)c1ccc(CNC[C@H](O)c2ccc(F)cc2F)cc1 | 891 | 2.82 | 1.45 | 1.95 | > 10 |
| Cc1cc(O)c(Cl)cc1-c1cccc2c(N)ccnc12 | 1170 | 1.48 | > 10 | 2.04 | > 10 |
| Cc1ccc2[nH]c(-c3cc4n(n3)CCN(c3ccnc(N)n3)C4)nc2c1C | 1780 | 2.63 | 3.63 | 2.63 | > 10 |
| Nc1cc(N2CCC(c3nc4cc(F)ccc4[nH]3)CC2)nc(N2CCOCC2)n1 | 8710 | 8.32 | > 10 | > 10 | > 10 |
| O=C(NCC1CC1)c1cc2c(OCc3ccc(Cl)cc3)cccc2[nH]1 | 3890 | 10.2 | > 10 | 6.46 | > 10 |
| CC(C)CCOc1ccc2[nH]c(-c3cc(N4CCC[C@@H]4CS(C)(=O)=O)ccn3)cc2c1 | 661 | 1.12 | 1.86 | 0.891 | > 10 |
| Cc1ccc(CNc2ncnc(N)c2Cl)c(N2CCCC2)n1 | 2450 | > 10 | 1.07 | > 10 | > 10 |
| CN1CCN(c2ccc(C(F)(F)F)cc2NCc2cnc[nH]2)CC1 | 4070 | 4.68 | 6.61 | 4.27 | > 10 |
| O=C1CN(C(=O)c2ccnc3ccccc23)CCN1Cc1ccccc1F | 6310 | 14.5 | > 10 | > 10 | > 10 |
| CN(C)Cc1cccc(CCNCc2csc(-c3ccc(C(F)(F)F)cc3)n2)c1 | 2630 | 3.47 | 4.79 | 2.69 | 7.76 |
| CN1C2CCC1CC(OC(=O)C1CCC(C(=O)OC3CC4CCC(C3)N4C)(c3ccccc3)c3ccccc31)C2 (stereo not given) | 2880 | 3.8 | 3.89 | 3.31 | > 10 |
| CCNc1nc(C)cc(Nc2ccc(NC(=O)Nc3ccc(F)cc3F)cc2)n1 | 263 | 0.389 | 0.562 | 0.269 | 2.63 |
| CN1C(C)(C)CC(NC(=O)c2ccc(-c3cc(-c4cccc(C(F)(F)F)c4)n[nH]3)cc2)CC1(C)C | 3630 | 9.33 | 8.51 | 7.94 | > 10 |
| O=C(NCCNc1ccnc2ccncc12)c1ccc(C(F)(F)F)cc1 | 3240 | 5.75 | > 10 | 5.37 | > 10 |
| Cc1ccc2[nH]c(CNC[C@@H](CO)C3CCC3)cc2c1C | 2450 | 4.57 | 4.47 | 3.63 | > 10 |
| c1ccc(CCC23CN(Cc4ccccn4)CC2CN(Cc2ccns2)C3)cc1 (stereo not given) | 1450 | 3.55 | 6.46 | 4.17 | > 10 |
| CCCC(=O)NC1COCC1Cc1ccncc1 (stereo not given) | 6310 | > 10 | 8.91 | > 10 | > 10 |
| COc1ccc2nc(C)cc(NCc3cccc(NC(=O)c4ccco4)c3)c2c1 | 1170 | 2.45 | 3.31 | 2.4 | > 10 |
| COc1ccc2cc(-c3cc(N)ccn3)[nH]c2c1 | 2880 | 4.57 | 6.03 | 4.17 | > 10 |
| Cc1ccc2nc(-c3cccc(NC(=O)c4ccc(OC(F)(F)F)c(Cl)c4)c3)[nH]c2n1 | 3310 | 6.46 | > 10 | 4.37 | > 10 |
| Nc1ccnc2ccc(-c3ccc(C(=O)NCC4CCOCC4)cc3)cc12 | 1230 | 3.31 | > 10 | 2.69 | > 10 |
| Cc1cc(O)c(Cl)cc1-c1ccc2nccc(N)c2c1 | 324 | 0.38 | > 10 | 0.302 | > 10 |
| Nc1ccc(Nc2ccc(F)cc2)c2ccncc12 | 4370 | 7.41 | 7.41 | 4.37 | > 10 |

Further lines, with some results ahead:

| IC50 (Plasmodium falciparum [1]) [nM] | IC50 (Plasmodium falciparum [3]) [µM] | IC50 (Plasmodium falciparum [4]) [µM] | IC50 (Plasmodium falciparum [5]) [µM] | Compound | IC50 at 72 h [2] [µM] |
| --- | --- | --- | --- | --- | --- |
| 4470 | 5.37 | > 10 | 6.17 | COc1ccc(OC2CCN(C3CCCC3)CC2)c(C(=O)NCc2cccc3[nH]ccc23)c1 | > 10 |
| 5890 | 5.37 | > 10 | 5.5 | CN(C[C@H](O)COc1ccccc1CN1CCC(c2ccncc2)CC1)C1CCCCC1 | > 10 |
| 1230 | 6.61 | 0.977 | 4.37 | Cc1nc(N2CCN(C)CC2)cc(N2CCN(S(=O)(=O)c3ccccc3C(F)(F)F)CC2)n1 | > 10 |
| 4070 | 3.63 | 6.61 | 3.31 | OCCN1CCC(NCCc2cc(Cl)cc(Cl)c2)CC1 | > 10 |
| 708 | 0.977 | 3.63 | 0.741 | Cc1ccccc1CN1CCC(CNc2c3c(nc4ccccc24)CCC3)CC1 | 5.25 |
| 2510 | 9.12 | > 10 | 6.46 | Cc1nc(-c2ccccn2)nc(NC2CCN(CC(F)F)CC2)c1C | > 10 |
| 1820 | 2.75 | 3.8 | 2.63 | Clc1ccc2[nH]c3c(c2c1)CCCC3NC1CCN(C2CCOC2)CC1 (stereo not given) | 10 |
| 2040 | 3.02 | 3.16 | 2.45 | Cc1ccc2nc(NC[C@H]3CCN(C4CC4)C3)cc(C)c2c1 | > 10 |
| 1950 | 3.39 | 8.91 | 3.89 | CCN1CCN(c2ccc(CNCc3cccc(O)c3)cc2F)CC1 | > 10 |
| 2820 | 3.55 | 9.55 | 3.31 | N[C@H]1CC[C@@H](NC2CCN(c3ccc(F)c(F)c3)CC2)CC1 | 7.76 |
| 3720 | 5.25 | > 10 | 5.37 | Cc1ccn2cc(-c3ccc(N4CCC(NCc5cccnc5)CC4)cc3)nc2c1 | > 10 |
| 2880 | 3.72 | 7.94 | 2.69 | c1cncc(-c2ccc(CNC3CCN(Cc4cccs4)CC3)cc2)c1 | > 10 |
| 4170 | 4.27 | > 10 | 3.8 | CN1CCN(CCNC2CCN3CCCC3C2)C(c2ccccc2)C1 (stereo not given) | > 10 |
| 4270 | 7.59 | 6.46 | 5.75 | COc1ccc(-c2cc(C(=O)Nc3ccc(N4CCN5CCCC5C4)cc3)c3c(C)noc3n2)cc1 (stereo not given) | > 10 |
| 977 | 1.7 | 1.62 | 1.23 | CN1CCC(N(C)C[C@H](Nc2ncnc3ccccc23)c2ccccc2)CC1 | > 10 |
| 4370 | 9.12 | 10.2 | 6.17 | Cc1cc(N2CCC(NC3CCNC(c4ccccc4)C3)CC2)nc(C)n1 (stereo not given) | > 10 |
| 3890 | 4.17 | 10 | 3.8 | O[C@H]1CCN(Cc2cccc(NCc3cn4ccnc4s3)c2)C1 | > 10 |
| 2340 | 2.57 | 7.24 | 1.78 | c1ccc(CN2CCC(CCNC[C@@H]3CCCN4CCCC[C@H]34)CC2)cc1 | > 10 |
| 525 | 0.589 | 0.794 | 0.417 | COc1ccc2c(N3CC[C@H](CN4CCCC4)C3)ccnc2c1 | > 10 |
| 4570 | 5.37 | > 10 | 4.47 | O=C(NCc1ccc(OC(F)(F)F)cc1)N(CCN1CCCC1)[C@H]1CCCNC1 | > 10 |
| 3890 | 3.31 | 8.91 | 3.47 | Cc1ccc2nc(CCCNC3CCN(c4cc(C)nc(N)n4)CC3)oc2c1 | > 10 |
